Literature values as cited in US8518371B2, “Hypoxia-selective, weakly basic 2-nitroimidazole delivery agents and methods of use thereof” (Natural Pharmacia International, Inc., priority 2006, dated 2013).

Tests used:
[1] = in vivo
animal models = conditions: in vivo
[2] = escalating, rarely to

Molecule | selectivity for tumor cells (tumor cells) | retention times in tissues [1] | safety and efficacy in animal models (animal models) | MTD [2]
N[C@@H](Cc1ccc(B(O)O)cc1)C(=O)O [BPA, L-4-dihydroxy-borylphenylalanine] | moderate | low | safe and efficacious | –
CC[C@]1(O)C[C@@H]2CN(CCc3c([nH]c4ccccc34)[C@@](C(=O)OC)(c3cc4c(cc3OC)N(C)[C@H]3[C@@](O)(C(=O)OC)[C@H](OC(C)=O)[C@]5(CC)C=CCN6CC[C@]43[C@@H]65)C2)C1 [vinblastine] | – | – | – | ≤ 18.5 mg/m^2
disodium mercapto-closo-dodecaborate [BSH] | moderate | low | safe and efficacious | –
